{"source": "patent US20130172346A1", "about": "“USE OF KYNURENIC ACID AMIDE DERIVATIVES FOR THE TREATMENT OF HUNTINGTON'S DISEASE” (priority 2010, published 2013)", "key": {"N171-82Q transgenic mice [1]": {"system": "N171-82Q transgenic mice", "experiment": "Survival test in N171-82Q transgenic mouse model of Huntington's disease", "assay_type": "in vivo", "details": "p=0.016", "source_text": "(§1) The transgenic N171-82Q mice were originally obtained from Jackson Laboratories (Bar Harbor, Me., United States), later we have propagated them in our laboratories by using B6C3F1 background strains. The progeny were genotyped by PCR technique from tail-DNA. The animals were kept in transgenic cages under standard laboratory conditions (up to 5 animals/cage), and had free access to water and food. Male and female transgenic and wild type animals respectively, were equally allotted to the individual test groups. The transgenic animals were injected intraperitoneally (5 ml/kg of body weight) every day at the same time with 2-(2-N,N-dimethylaminoethylamino-1-carbonyl)-1H-quinolin-4-one hydrochloride (at a dose of 100 mg/kg of body weight, dissolved in distilled water, pH was adjusted to 6.5 with 1N NaOH). The control transgenic and wild animals, respectively obtained a salt solution comprising 0.1 M of phosphate buffer (PBS) (5 ml/kg of body weight). The animals were inoculated in the first 5 days of the week starting from the age of 7 weeks.\nThe transgenic animals were inoculated as disclosed above with 2-(2-N,N-dimethylamino-ethylamino-1-carbonyl)-1H-quinolin-4-one hydrochloride (n=10), and the transgenic animals serving as a control, were inoculated with 0.1 M PBS (n=10) until the animals perished. As negative control wild type animals, treated with 0.1M PBS were used (n=10).\n(§2) The statistical analysis of our data was performed by using Statistica software (StatSoft Inc., (2008) STATISTICA version 8.0.; www.statsoft.com). The analysis of the survival data was carried out by Kaplan-Meyer survival curves and Mantel-Cox log rank test. The normality of the data of the open-field test, the body weight measurement and the striatal cell volume measurement was first examined by Shapiro-Wilk W test. […] The significance level was determined at p<0.05. In case of normal distribution an average±S.E.M and in case of non-normal distribution the median and the interquartile range were used in order to depict the data"}, "N171-82Q transgenic mice [2]": {"system": "N171-82Q transgenic mice", "experiment": "Open-field test for examining motor activity (covered distance)", "assay_type": "in vivo, mouse", "source_text": "as §1\nA test method almost identical with the method disclosed for the survival test was used with the exception of the number of animals (n=9, n=8, n=8 corresponding to the above group assignment). The spontaneous motor activity of the mice was tested once a week 2 hours after the given daily inoculation, always at the same day of the week. The animals stayed in the test unit (48×48×40 cm box open from above) for 5 minutes, the motor parameters were registered by the aid of Conducta 1.0 software (Experimetria Ltd., Budapest, Hungary). In order to characterize the motor activity, the parameter of the covered distance was selected and the data of the examined 9 weeks (between the age of 7 and 15 weeks) were evaluated as follows: an average of the first, second, third 3 weeks was calculated for each test group and the three test groups were compared according to the obtained average values.\nas §2"}, "N171-82Q transgenic mice [3]": {"system": "N171-82Q transgenic mice", "experiment": "Body weight measurements", "assay_type": "in vivo, mouse", "details": "100 mg/kg i.p., weekly measurement from age of 7 weeks; p=0.00022", "source_text": "as §1\n(§3) The body weight of the animals was measured once a week, always at the same day of the week and at the same time of the day, starting from the age of 7 weeks. […]"}, "[4]": {"system": "neurons of the striatum of N171-82Q transgenic mice", "experiment": "Immunohistochemistry with cell volume estimation of striatal neurons", "assay_type": "in vivo, mouse", "details": "100 mg/kg i.p.", "source_text": "as §1, §3"}, "[5]": {"details": "cited from earlier work"}, "[6]": {"system": "organic anion transporters", "details": "mediated by organic anion transporters; cited from earlier work"}}, "note": "“Also recorded” adds a separate entry of the source.", "data": [{"smiles": "CN(C)CCNC(=O)c1cc(=O)c2ccccc2[nH]1.Cl", "note": "[2-(2-N,N-dimethylaminoethylamino-1-carbonyl)-1H-quinolin-4-one hydrochloride]", "values": [{"measurement": "average survival time", "setting": "N171-82Q transgenic mice [1]; N171-82Q transgenic mice, intraperitoneal, chronic, 100 mg/kg, n=10, control transgenic 111.3±6.6 days", "value": "145.5 ± 12.0", "unit": "days"}, {"measurement": "survival compared to the control groups (Kaplan-Meier)", "setting": "N171-82Q transgenic mice [1]; N171-82Q transgenic mice, FIG. 1", "value": "significantly increased"}, {"measurement": "improvement of average survival time", "setting": "N171-82Q transgenic mice [1]; vs control transgenic animals, intraperitoneal, chronic, 100 mg/kg", "value": 30.7, "unit": "%"}, {"measurement": "covered distance, last 3 weeks", "setting": "N171-82Q transgenic mice [2]; 100 mg/kg i.p., last 3 weeks of treatment, p=0.0094", "value": "significant improvement"}, {"measurement": "covered distance, second 3 weeks", "setting": "N171-82Q transgenic mice [2]; 100 mg/kg i.p., second 3 weeks", "value": "positive changes"}, {"measurement": "covered distance, first 3 weeks", "setting": "N171-82Q transgenic mice [2]; 5 minutes, 2 hours after daily inoculation, 100 mg/kg i.p., first 3 weeks (from age of 7 weeks)", "value": "has not improved"}, {"measurement": "covered distance in progress of time", "setting": "N171-82Q transgenic mice [2]; N171-82Q transgenic mice, FIG. 2", "value": "significant improvement"}, {"measurement": "body weight compared to the control transgenic animals", "setting": "N171-82Q transgenic mice [3]", "value": "significantly increased"}, {"measurement": "size (volume) of the neurons in the striatum", "setting": "[4]; treated transgenic animals at age of 16 weeks, interquartile range 716.2-787.4, untreated transgenic 663.4, wild type 739.0", "value": 744.5, "unit": "μm^3"}, {"measurement": "atrophy of the neurons in the striatum", "setting": "[4]; treated vs untreated N171-82Q transgenic animals, hydrochloride, 100 mg/kg", "value": "successfully prevented the atrophy; also recorded: prevented the development of atrophy"}]}, {"smiles": "O=C(O)c1cc(=O)c2ccccc2[nH]1", "note": "[KYNA, kynurenic acid]", "values": [{"measurement": "solubility", "setting": "[5]", "value": "poor"}, {"measurement": "elimination from the brain and organism", "setting": "[6]", "value": "rapidly eliminated"}]}]}
